Measurements published in patent publication US5866681A, “Thrombin receptor antagonists” (priority 1995, dated 1999).
pIC50: −log10 of the molar value. Like-named read-outs stand apart in the source and are kept apart here. *1 amine or outer side, *2 acyl side, *3 side chain or, on linkers, in order; H or OH if unused. Where a SMILES comes first, the peptide text is derived from it. [ ]: non-standard residue; d: D form. The star is where a group is joined. Isoquinolin(3-yl)carbonyl = O=C(c1cc2ccccc2cn1)*; X16 = CCCCCN([C@@H](Cc1ccccc1)C(=O)[*:2])[*:1]; 2Naphthylsulfonyl = O=S(=O)(c1ccc2ccccc2c1)*; Quinoxaline2carbonyl = O=C(c1cnc2ccccc2n1)*; Quinoline3carbonyl = O=C(c1cnc2ccccc2c1)*; X6 = CCCCCN(CCCCC)[C@@H](Cc1ccccc1)C(=O)*; X5 = CCCCCN(C)[C@@H](Cc1ccccc1)C(=O)*; X4 = CCCCCN1Cc2ccccc2C[C@H]1C(=O)*; NMeR = CN[C@@H](CCCNC(=N)N)C(=O)O; Quinaldoyl = O=C(c1ccc2ccccc2n1)*; Cha = N[C@@H](CC1CCCCC1)C(=O)O; dCha = N[C@H](CC1CCCCC1)C(=O)O; X2 = O=C(Cc1c[nH]c2ccccc12)*; X8 = O=C(C1CCc2ccccc2C1)*

Target: T1, thrombin receptor (Homo sapiens, UniProt P25116)
T1 construct: washed human platelets are prepared from blood drawn from healthy volunteers; endogenous in cells; host or cells: washed human platelets from healthy volunteers
T1 sequence (P25116 22-425): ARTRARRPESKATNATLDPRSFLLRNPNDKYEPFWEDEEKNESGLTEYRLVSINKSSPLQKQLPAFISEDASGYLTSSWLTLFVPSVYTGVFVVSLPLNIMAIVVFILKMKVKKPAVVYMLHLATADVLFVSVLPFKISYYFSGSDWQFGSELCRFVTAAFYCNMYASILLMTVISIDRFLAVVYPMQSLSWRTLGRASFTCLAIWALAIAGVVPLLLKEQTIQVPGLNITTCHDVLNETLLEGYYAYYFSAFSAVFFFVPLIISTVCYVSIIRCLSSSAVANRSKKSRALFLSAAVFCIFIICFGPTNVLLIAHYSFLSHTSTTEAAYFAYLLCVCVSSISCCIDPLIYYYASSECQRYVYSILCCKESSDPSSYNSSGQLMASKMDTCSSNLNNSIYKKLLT
Test: Platelet aggregation assay for thrombin receptor antagonist activity (washed human platelets stimulated with α-thrombin)
Assay type: cell-based
Experimental: The compounds of the present invention may be tested for thrombin receptor antagonist activity by using a platelet aggregation assay. In this assay, washed human platelets are prepared from blood drawn from healthy volunteers who have not ingested any medications for two weeks prior to donation. Blood is drawn into 12.5% (vol/vol) ACD (85 mM sodium citrate, 111 mM dextrose, 71 mM citric acid) containing 0.1% (vol/vol) PGI2 (0.05 mg/mL PGI2, 100 mM Tris, pH 12). Platelet-rich plasma was obtained by centrifugation at 160×g for 20 minutes. The platelets were pelleted by centrifugation at 760×g for 10 minutes and resuspended in CGS (13 mM trisodium citrate, 120 mM sodium chloride, 30 mM dextrose, pH 7.0) containing 0.1% (vol/vol) PGI2, repelleted and resuspended in Tyrodes buffer (10 mM Hepes, 12 mM sodium bicarbonate, 138 mM sodium chloride, 5.5 mM glucose, 2.9 mM potassium chloride, 1.0 mM calcium chloride, pH 7.4) and stored at 37° C. Approximately 0.4-10 nM α-thrombin is used to stimulate platelet aggregation in control reactions which are monitored by aggregometry using an aggregometer. Candidate antagonists are added to the platelet mixture followed by the addition of thrombin in order to assess their ability to prevent thrombin-mediated aggregation.
Platelet aggregation can also be measured with washed platelets in 96-well microtiter plates as described in Fratantoni, J. C. et al., Am. J. Clin. Pathol. 94:613-617 (1990). The ability of the antagonists to block the thrombin receptor was assessed in this assay using various concentrations of antagonists. The concentration at which 50% inhibition of platelet aggregation is achieved is defined as IC50.

[1] = washed human platelets, thrombin-mediated aggregation, read-out: IC50 (concentration at which 50% inhibition of platelet aggregation is achieved)

Structure (SMILES) | pIC50 [1] | pIC50
N=C(N)NCCC[C@H](NC(=O)[C@H](CC1CCCCC1)NC(=O)[C@H](CC1CCCCC1)NC(=O)c1ccc2ccccc2n1)C(=O)N[C@@H](CCCCN)C(N)=O [Compound 28] (Quinaldoyl-[Cha][Cha]RK-NH2) | 4.52 | –
N=C(N)NCCC[C@H](NC(=O)[C@H](CC1CCCCC1)NC(=O)[C@H](CC1CCCCC1)NC(=O)c1cnc2ccccc2c1)C(=O)N[C@@H](CCCCN)C(N)=O [Compound 29] (Quinoline3carbonyl-[Cha][Cha]RK-NH2) | < 3.70 | –
N=C(N)NCCC[C@H](NC(=O)[C@H](CC1CCCCC1)NC(=O)[C@H](CC1CCCCC1)NC(=O)Cc1c[nH]c2ccccc12)C(=O)N[C@@H](CCCCN)C(N)=O [Compound 30] (X2-[Cha][Cha]RK-NH2) | 4.70 | –
N=C(N)NCCC[C@H](NC(=O)[C@H](CC1CCCCC1)NC(=O)[C@H](CC1CCCCC1)NC(=O)C1CCc2ccccc2C1)C(=O)N[C@@H](CCCCN)C(N)=O (stereo partly shown) [Compound 31] (X8-[Cha][Cha]RK-NH2) | < 3.70 | –
N=C(N)NCCC[C@H](NC(=O)[C@H](CC1CCCCC1)NC(=O)[C@H](CC1CCCCC1)NC(=O)c1cc2ccccc2cn1)C(=O)N[C@@H](CCCCN)C(N)=O [Compound 32] ({Isoquinolin(3-yl)carbonyl}-[Cha][Cha]RK-NH2) | – | 4.82
CC/C(=C\c1ccccc1)CN[C@@H](CC1CCCCC1)C(=O)N[C@@H](CC1CCCCC1)C(=O)N[C@@H](CCCNC(=N)N)C(=O)N[C@@H](CCCCN)C(N)=O [Compound 35] | 4.70 | –
N=C(N)NCCC[C@H](NC(=O)[C@H](CC1CCCCC1)NC(=O)[C@H](CC1CCCCC1)NC(=O)c1cnc2ccccc2n1)C(=O)N[C@@H](CCCCN)C(N)=O [Compound 37] (Quinoxaline2carbonyl-[Cha][Cha]RK-NH2) | < 4.00 | –
CCCCCN(C)[C@@H](Cc1ccccc1)C(=O)N[C@@H](CC1CCCCC1)C(=O)N[C@H](CC1CCCCC1)C(=O)N[C@@H](CCCNC(=N)N)C(=O)N[C@@H](CCCCN)C(N)=O [Compound 43] (X5-[Cha][dCha]RK-NH2) | – | 4.82

Continued, in another order:

pIC50 [1] | Structure (SMILES) | pIC50
5.30 | N=C(N)NCCC[C@H](NC(=O)[C@H](CC1CCCCC1)NC(=O)[C@H](CC1CCCCC1)NC/C=C/c1ccccc1)C(=O)N[C@@H](CCCCN)C(N)=O [Compound 33] | –
4.82 | C/C(=C\c1ccccc1)CN[C@@H](CC1CCCCC1)C(=O)N[C@@H](CC1CCCCC1)C(=O)N[C@@H](CCCNC(=N)N)C(=O)N[C@@H](CCCCN)C(N)=O [Compound 34] | –
5.12 | CC(COc1ccccc1)N[C@@H](CC1CCCCC1)C(=O)N[C@@H](CC1CCCCC1)C(=O)N[C@@H](CCCNC(=N)N)C(=O)N[C@@H](CCCCN)C(N)=O (stereo partly shown) [Compound 36] | –
5.00 | N=C(N)NCCC[C@H](NC(=O)[C@H](CC1CCCCC1)NC(=O)[C@H](CC1CCCCC1)NS(=O)(=O)c1ccc2ccccc2c1)C(=O)N[C@@H](CCCCN)C(N)=O [Compound 38] (2Naphthylsulfonyl-[Cha][Cha]RK-NH2) | –
5.10 | CCCCCN1Cc2ccccc2C[C@H]1C(=O)N[C@@H](CC1CCCCC1)C(=O)N[C@@H](CC1CCCCC1)C(=O)N(C)[C@@H](CCCNC(=N)N)C(=O)N[C@@H](CCCNC(=N)N)C(N)=O [Compound 39] (X4-[Cha][Cha][NMeR]R-NH2) | –
5.70 | CCCCCN(CCCCC)[C@@H](Cc1ccccc1)C(=O)N[C@@H](CC1CCCCC1)C(=O)N[C@H](CC1CCCCC1)C(=O)N[C@@H](CCCNC(=N)N)C(=O)N[C@@H](CCCCN)C(N)=O [Compound 42] (X6-[Cha][dCha]RK-NH2) | –
5.30 | CCCCCN[C@@H](Cc1ccccc1)C(=O)N[C@@H](CC1CCCCC1)C(=O)N[C@H](CC(C)C)C(=O)N[C@@H](CCCNC(=N)N)C(=O)N[C@@H](CCCCN)C(N)=O [Compound 44] (H-[X16][Cha][dL]RK-NH2) | –
5.30 | CCCCCN[C@@H](Cc1ccccc1)C(=O)N[C@H](CC(C)C)C(=O)N[C@@H](CC1CCCCC1)C(=O)N[C@@H](CCCNC(=N)N)C(=O)N[C@@H](CCCCN)C(N)=O [Compound 45] (H-[X16][dL][Cha]RK-NH2) | –
